Laboratory results taken from ChEMBL document CHEMBL3870335, “Bioactivity of topologically confined gramicidin A dimers” (Bioorg Med Chem, 2017).
Values after ≈ are worked out from the molar mass of the structure shown. Blank lines part the entries; values can stand above or below the molecule they belong to. Where a SMILES comes first, the peptide text is derived from it. [ ]: non-standard residue; d: D form. The star is where a group is joined. NHCH2CH2OH = OCCN*; For = O=C*

Legend:
[1] = system: Staphylococcus epidermidis; test: Antimicrobial activity against Staphylococcus epidermidis PP62A after 16 to 20 hrs by broth microdilution method; type: functional
[2] = system: Enterococcus faecium; test: Antimicrobial activity against Enterococcus faecium DSMZ 20477 after 16 to 20 hrs by broth microdilution method; type: functional
[3] = system: Klebsiella pneumoniae; test: Antimicrobial activity against Klebsiella pneumoniae ATCC 13883 after 16 to 20 hrs by broth microdilution method; type: functional
[4] = system: Staphylococcus aureus; test: Antimicrobial activity against methicillin-resistant Staphylococcus aureus ATCC 43300 after 16 to 20 hrs by broth microdilution method; type: functional
[5] = system: Enterococcus faecalis; test: Antimicrobial activity against Enterococcus faecalis ATCC 29212 after 16 to 20 hrs by broth microdilution method; type: functional
[6] = system: Pseudomonas aeruginosa; test: Antimicrobial activity against Pseudomonas aeruginosa ATCC 27853 after 16 to 20 hrs by broth microdilution method; type: functional
[7] = system: Streptococcus pneumoniae; test: Antimicrobial activity against Streptococcus pneumoniae serotype 19A after 16 to 20 hrs by broth microdilution method; type: functional
[8] = system: Escherichia coli; test: Antimicrobial activity against Escherichia coli ATCC 25922 after 16 to 20 hrs by broth microdilution method; type: functional
[9] = system: Proteus mirabilis; test: Antimicrobial activity against Proteus mirabilis ATCC 7002 after 16 to 20 hrs by broth microdilution method; type: functional
[10] = Induction of bulk conductivity in soybean asolectin planar lipid bilayers assessed as residual conductance of black lipid bilayer at 500 nM at pH 8
[11] = Induction of bulk conductivity in soybean asolectin planar lipid bilayers assessed as residual conductance of black lipid bilayer at 1 nM at pH 8
[12] = system: Plasmodium falciparum; test: Antimalarial activity against chloroquine-resistant Plasmodium falciparum Dd2 after 72 hrs by NBT based LDH assay; type: functional; conditions: Dd2, 72 h
[13] = system: Plasmodium falciparum; test: Antimalarial activity against chloroquine-sensitive Plasmodium falciparum 3D7 after 72 hrs by NBT based LDH assay; type: functional; conditions: 3D7, 72 h
[14] = Induction of bulk conductivity in soybean asolectin planar lipid bilayers assessed as residual conductance of black lipid bilayer at 0.5 nM at pH 8
[15] = Hemolytic activity against human erythrocytes at 20 to 140 uM after 30 mins; type: ADME, cell-based; conditions: erythrocyte, 0.5 h

Compound: CC[C@H]1OC(=O)[C@H](C)[C@@H](O[C@H]2C[C@@](C)(OC)[C@@H](O)[C@H](C)O2)[C@H](C)[C@@H](O[C@@H]2O[C@H](C)C[C@H](N(C)C)[C@H]2O)[C@](C)(O)C[C@@H](C)C(=O)[C@H](C)[C@@H](O)[C@]1(C)O [ERYTHROMYCIN]
- MIC [1]: > 64 µg/mL
- MIC [2]: 2 to 4 µg/mL (≈ 2.73 to 5.45 µM)
- MIC [3]: > 64 µg/mL
- MIC [4]: 0.5 µg/mL (≈ 0.681 µM)
- MIC [5]: 1 µg/mL (≈ 1.36 µM)
- MIC [6]: > 64 µg/mL
- MIC [7]: > 64 µg/mL
- MIC [8]: > 32 µg/mL
- MIC [9]: > 64 µg/mL

- MIC [8]: > 64 µg/mL
Compound: CC(C)C[C@@H](NC(=O)[C@H](C)NC(=O)CNC(=O)[C@@H](NC(=O)CCS)C(C)C)C(=O)N[C@@H](C)C(=O)N[C@@H](C(=O)N[C@H](C(=O)N[C@@H](C(=O)N[C@@H](Cc1c[nH]c2ccccc12)C(=O)N[C@H](CC(C)C)C(=O)N[C@@H](Cc1c[nH]c2ccccc12)C(=O)N[C@H](CC(C)C)C(=O)N[C@@H](Cc1c[nH]c2ccccc12)C(=O)N[C@H](CC(C)C)C(=O)N[C@@H](Cc1c[nH]c2ccccc12)C(=O)NCCO)C(C)C)C(C)C)C(C)C
- Activity [10]: 42 uS
- Activity [11]: 0.7 uS

Compound: CC(C)C[C@H]1NC(=O)[C@H](C)NC(=O)CNC(=O)[C@H](C(C)C)NC(=O)CCSSCCNC(=O)[C@H](Cc2c[nH]c3ccccc23)NC(=O)[C@@H](CC(C)C)NC(=O)[C@H](Cc2c[nH]c3ccccc23)NC(=O)[C@@H](CC(C)C)NC(=O)[C@H](Cc2c[nH]c3ccccc23)NC(=O)[C@@H](CC(C)C)NC(=O)[C@H](Cc2c[nH]c3ccccc23)NC(=O)[C@@H](C(C)C)NC(=O)[C@H](C(C)C)NC(=O)[C@@H](C(C)C)NC(=O)[C@H](C)NC(=O)[C@@H](CC(C)C)NC(=O)[C@H](C)NC(=O)CNC(=O)[C@H](C(C)C)NC(=O)CCSSCCNC(=O)[C@H](Cc2c[nH]c3ccccc23)NC(=O)[C@@H](CC(C)C)NC(=O)[C@H](Cc2c[nH]c3ccccc23)NC(=O)[C@@H](CC(C)C)NC(=O)[C@H](Cc2c[nH]c3ccccc23)NC(=O)[C@@H](CC(C)C)NC(=O)[C@H](Cc2c[nH]c3ccccc23)NC(=O)[C@@H](C(C)C)NC(=O)[C@H](C(C)C)NC(=O)[C@@H](C(C)C)NC(=O)[C@H](C)NC1=O
- MIC [1]: > 64 µg/mL
- Activity [10]: < 0.3 uS
- MIC [2]: > 64 µg/mL
- IC50 [12]: 2.7 nM
- MIC [3]: > 64 µg/mL
- MIC [4]: > 64 µg/mL
- MIC [5]: > 64 µg/mL
- MIC [6]: > 64 µg/mL
- MIC [7]: > 64 µg/mL
- MIC [8]: > 64 µg/mL
- IC50 [13]: 2.9 nM
- MIC [9]: > 64 µg/mL

Compound: CC(=O)N[C@H](C(=O)NCC(=O)N[C@@H](C)C(=O)N[C@H](CC(C)C)C(=O)N[C@@H](C)C(=O)N[C@@H](C(=O)N[C@H](C(=O)N[C@@H](C(=O)N[C@@H](Cc1c[nH]c2ccccc12)C(=O)N[C@H](CC(C)C)C(=O)N[C@@H](Cc1c[nH]c2ccccc12)C(=O)N[C@H](CC(C)C)C(=O)N[C@@H](Cc1c[nH]c2ccccc12)C(=O)N[C@H](CC(C)C)C(=O)N[C@@H](Cc1c[nH]c2ccccc12)C(=O)NCCS)C(C)C)C(C)C)C(C)C)C(C)C
- Activity [14]: 1.9 uS
- MIC [1]: > 64 µg/mL
- Activity [10]: 93 uS
- MIC [2]: > 64 µg/mL
- IC50 [12]: 8 nM
- MIC [3]: > 64 µg/mL
- MIC [4]: > 64 µg/mL
- MIC [5]: > 64 µg/mL
- MIC [6]: > 64 µg/mL
- MIC [7]: 0.05 µg/mL (≈ 0.0261 µM)
- MIC [8]: > 64 µg/mL
- IC50 [13]: 5.5 nM
- MIC [9]: > 64 µg/mL

Compound: CC(C)C[C@@H](NC(=O)[C@H](C)NC(=O)CNC(=O)[C@@H](NC=O)C(C)C)C(=O)N[C@@H](C)C(=O)N[C@@H](C(=O)N[C@H](C(=O)N[C@@H](C(=O)N[C@@H](Cc1c[nH]c2ccccc12)C(=O)N[C@H](CC(C)C)C(=O)N[C@@H](Cc1c[nH]c2ccccc12)C(=O)N[C@H](CC(C)C)C(=O)N[C@@H](Cc1c[nH]c2ccccc12)C(=O)N[C@H](CC(C)C)C(=O)N[C@@H](Cc1c[nH]c2ccccc12)C(=O)NCCO)C(C)C)C(C)C)C(C)C (For-VGA[dL]A[dV]V[dV]W[dL]W[dL]W[dL]W-NHCH2CH2OH)
- Activity [14]: > 50 uS
- MIC [1]: 0.5 µg/mL (≈ 0.266 µM)
- MIC [2]: 2 µg/mL (≈ 1.06 µM)
- IC50 [12]: 0.014 nM
- MIC [3]: > 64 µg/mL
- MIC [4]: 64 µg/mL (≈ 34 µM)
- MIC [5]: 1 µg/mL (≈ 0.531 µM)
- MIC [6]: > 64 µg/mL
- Activity [15]: Toxic
- MIC [7]: 0.05 µg/mL (≈ 0.0266 µM)
- MIC [8]: > 64 µg/mL
- IC50 [13]: 0.05 nM
- MIC [9]: > 64 µg/mL
